From PMC2568900 (Biochemistry, 2008)
“Also recorded” adds a separate entry of the source.

Assays:
[1] = target: PDHK2-wt (Rattus norvegicus, UniProt Q64536); experiment: ATP, ADP and DCA binding by quenching of intrinsic tryptophan fluorescence
[2] = target: T1, PDHK2-Y320F (Rattus norvegicus, UniProt Q64536, Y328F); experiment: as above; conditions: for Qmax: quenching caused by the varied ligand
[3] = test system: PDHK2-Y320F bound to L2; experiment: GST-L2 pull-down; assay type: binding, rat; conditions: for effect on amount of kinase bound to L2: nucleotide 0.5 mM
[4] = target: L2 binding to PDHK2-N247Q (Rattus norvegicus, UniProt Q64536, N255Q); experiment: GST-L2 pull-down; conditions: PDHK2-N247Q (cannot bind nucleotides); nucleotides 10 mM each
[5] = target: T2, wild-type PDHK2 (Rattus norvegicus, UniProt Q64536); experiment: biochemical
[6] = target: T1, PDHK2-Y320F; experiment: Kinase activity assay; assay type: biochemical; conditions: standard phosphorylation assay
[7] = target: T3, PDHK2-T302A (Rattus norvegicus, UniProt Q64536, T310A); experiment: ATP, ADP and DCA binding by quenching of intrinsic tryptophan fluorescence
[8] = target: PDHK2-R250A (Rattus norvegicus, UniProt Q64536, R258A); experiment: as above
[9] = target: T2, wild-type PDHK2; conditions: control, wide range of concentrations
[10] = target: T3, PDHK2-T302A; experiment: Isothermal titration calorimetry of L2 binding; conditions: ITC, 10 mM ATP
[11] = PDHK2-wt, fixed ligand DCA (0.5 mM)
[12] = PDHK2-wt, no fixed ligand, 25 °C

Nc1ncnc2c1ncn2[C@@H]1O[C@H](COP(=O)(O)OP(=O)(O)O)[C@@H](O)[C@H]1O [ADP]
Kd [1, 11]: 2 ± 0.1 µM | nH [1, 11]: 2.2 ± 0.1 | Qmax ([1]; PDHK2-wt, fixed ligand DCA (0.5 mM), quenching caused by the varied ligand): 39 ± 1% | Qmax (extrapolated maximal quenching) ([1]; PDHK2-wt, no fixed ligand): 31 ± 1% | nH (Hill coefficient) ([1]; PDHK2-wt, no fixed ligand): 1.5 ± 0.2 | Kd [1, 12]: 10.6 ± 0.5 µM | increase in affinity for ADP in the presence of DCA ([1]; wild-type PDHK2, 0.5 mM DCA): approximately 5 times | increase in affinity for ADP by DCA (factor) ([2]; 0.5 mM DCA): 3.5 | Kd ([2]; fixed ligand DCA (0.5 mM)): 2.5 ± 0.2 µM | nH ([2]; fixed ligand DCA (0.5 mM)): 1.9 ± 0.1 | Qmax ([2]; fixed ligand DCA (0.5 mM)): 37 ± 1% | Qmax (extrapolated maximal quenching) ([2]; no fixed ligand): 24 ± 1% | nH (Hill coefficient) ([2]; no fixed ligand): 1.4 ± 0.1 | Kd ([2]; no fixed ligand, 25 °C): 8.9 ± 0.1 µM | effect on amount of kinase bound to L2 [3]: significant decrease | effect on L2 binding [4]: did not exert any nonspecific effects

O=C(O)C(Cl)Cl [DCA, dichloroacetate]
IC50 [5]: ~690 µM | Kd ([1]; Kd, PDHK2-wt, no fixed ligand, 25 °C): 226 ± 7 µM | Kd ([2]; Kd, fixed ligand ADP (50 μM)): 33 ± 1 µM | Kd ([2]; Kd, no fixed ligand, 25 °C): 292 ± 10 µM | Qmax ([2]; fixed ligand ADP (50 μM)): 29 ± 1% | effect on L2 binding, added alone ([3]; DCA 1 mM alone): little, if any, influence | effect on L2 binding, in combination with ATP or ADP ([3]; DCA 1 mM with 0.5 mM ATP or ADP): potentiated the effects of adenine nucleotides | effect on kinase activity [6]: neither of the mutant kinases displayed an effect of DCA that would significantly exceed that of sodium acetate; also recorded: did not display an appreciable inhibitory effect; also recorded: no appreciable effect | Kd ([7]; Kd, fixed ligand ADP (50 μM)): 249 ± 9 µM | Kd ([7]; Kd, fixed ligand ADP (500 μM)): 103 ± 1 µM | Kd ([7]; Kd, no fixed ligand, 25 °C): 320 ± 20 µM | Kd ([8]; Kd, fixed ligand ADP (50 μM)): 161 ± 4 µM | Kd ([8]; Kd, fixed ligand ADP (500 μM)): 59 ± 1 µM | Kd ([8]; Kd, no fixed ligand, 25 °C): 312 ± 25 µM

CC(=O)[O-].[Na+] [sodium acetate]
effect on kinase activity [9]: slight decrease in PDHK2 activity

Nc1ncnc2c1ncn2[C@@H]1O[C@H](COP(=O)(O)OP(=O)(O)OP(=O)(O)O)[C@@H](O)[C@H]1O [ATP]
Qmax (extrapolated maximal quenching) ([1]; PDHK2-wt, no fixed ligand): 37 ± 1% | nH (Hill coefficient) ([1]; PDHK2-wt, no fixed ligand): 1.9 ± 0.1 | Kd [1, 12]: 2.5 ± 0.4 µM | Qmax (extrapolated maximal quenching) ([2]; no fixed ligand): 32 ± 1% | nH (Hill coefficient) ([2]; no fixed ligand): 2.4 ± 0.1 | Kd ([2]; no fixed ligand, 25 °C): 1.7 ± 0.1 µM | effect on amount of kinase bound to L2 [3]: significant decrease | effect on L2 binding [10]: little, if any, effect | decrease in affinity relative to wild-type PDHK2 [7]: more than 20 fold | Qmax (extrapolated maximal quenching) ([7]; no fixed ligand): 23 ± 1% | nH (Hill coefficient) ([7]; no fixed ligand): 1.5 ± 0.1 | Kd ([7]; no fixed ligand, 25 °C): 60 ± 1 µM | decrease in affinity relative to wild-type PDHK2 [8]: > 30 fold | Qmax (extrapolated maximal quenching) ([8]; no fixed ligand): 29 ± 1% | nH (Hill coefficient) ([8]; no fixed ligand): 1.0 ± 0.1 | Kd ([8]; no fixed ligand, 25 °C): 80 ± 1 µM | effect on L2 binding [4]: did not exert any nonspecific effects
